From patent publication US6426355B1, “Heterocyclic carboxamide-containing thiourea inhibitors of herpes viruses containing phenylenediamine group” (American Home Products, priority 1998, dated 2002)
≈ marks a conversion by molar mass, not a printed value.

How the values were obtained:
[1] = test system: HCMV recombinant mutant virus (RV145); experiment: HCMV microtiter plate assay (beta-glucuronidase reporter); assay type: cell-based, Human Cytomegalovirus; details: HCMV in human foreskin fibroblasts
Procedure, shortened: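 Human foreskin fibroblasts were infected with RV145 in the presence of inhibitor. β-glucuronidase under a viral promoter served as the replication marker. At 96 h post-infection, lysates in pH 7.0 phosphate with Triton X-100/sarkosyl were assayed colorimetrically or fluorometrically, and IC50 was estimated from varying inhibitor amounts.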

VZV strain Ellen = experiment: VZV Antiviral (ELISA) assay; assay type: cell-based; details: VZV strain Ellen in HFF cells; for % inhibition 10 ug/ml VZV: at 10 ug/ml
Procedure, shortened: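 HFF cells infected with VZV Ellen at low multiplicity (<0.1) overnight were seeded at 3.5×10^4 cells/well in DMEM with 2% FBS plus compound and incubated three days at 37° C., 5% CO2. Viral replication was read by ELISA against glycoprotein II with β-galactosidase fluorogenic readout (ex 365/em 450 nm); IC50 relative to no-compound fluorescence.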

HSV-1 = experiment: HSV Antiviral (ELISA) assay; assay type: cell-based; details: HSV-1 in Vero cells
Procedure, shortened: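 Vero cells in DMEM/2% FBS pretreated with compound 30 min before HSV-1 infection (MOI 0.006), then ~24 h at 37 °C. Viral gD detected by ELISA with β-galactosidase secondary and 4-methylumbelliferyl-galactoside (ex 365/em 450 nm); IC50 from fluorescence versus untreated infected cells.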

| Structure (SMILES) | IC50 (ug/ml) HCMV [1] [µg/mL] | IC50 (ug/ml) VZV (VZV strain Ellen) [µg/mL] | % inhibition 10 ug/ml VZV (VZV strain Ellen) [%] | IC50 (ug/ml) HSV (HSV-1) [µg/mL] |
| --- | --- | --- | --- | --- |
| COc1cc(C)c(Cl)cc1NC(=S)Nc1ccc(NC(=O)c2ccccn2)cc1 [Example 352] | 0.6 (≈ 1.41 µM) | >10 | 51 | 3 (≈ 7.03 µM) |
| COc1cc(C)c(Cl)cc1NC(=S)Nc1ccc(NC(=O)c2ccco2)cc1 [Example 353] | 0.04 (≈ 0.0962 µM) | 7 (≈ 16.8 µM) | 86 | 0.6 (≈ 1.44 µM) |
| CN1CCC(N(C)c2ccc(NC(=S)Nc3ccc(NC(=O)c4ccccn4)cc3)cc2Cl)C1 (stereo not drawn) [Example 354] | 2 (≈ 4.04 µM) | 7 (≈ 14.1 µM) | 75 | 0.8 (≈ 1.62 µM) |
| CN(C)CC(=O)Nc1ccc(NC(=S)Nc2ccc(NC(=O)c3ccco3)cc2)cc1Cl [Example 361] | 0.25 (≈ 0.53 µM) | >10 | 26 | 8 (≈ 17 µM) |
| O=C(CN1CCCCC1)Nc1ccc(NC(=S)Nc2ccc(NC(=O)c3ccco3)cc2)cc1Cl [Example 365] | 0.035 (≈ 0.0684 µM) | 5 (≈ 9.76 µM) | 75 | 10 (≈ 19.5 µM) |
| O=C(CN1CCOCC1)Nc1ccc(NC(=S)Nc2ccc(NC(=O)c3ccco3)cc2)cc1Cl [Example 368] | 0.35 (≈ 0.681 µM) | >10 | 20 | >10 |
| CS(=O)(=O)Nc1ccc(NC(=S)Nc2ccc(NC(=O)c3ccco3)cc2)cc1Cl [Example 371] | >10 | >10 | 45 | >10 |
| CN1CCC(N(C)c2ccc(NC(=S)Nc3ccc(NC(=O)c4ccccn4)cc3)cc2Cl)CC1 [Example 376] | 0.8 (≈ 1.57 µM) | 7 (≈ 13.8 µM) | 83 | 3 (≈ 5.89 µM) |
| O=C(Nc1ccc(NC(=S)Nc2ccc(Cl)c(C(F)(F)F)c2)cc1)c1ccco1 [Example 378] | 0.033 (≈ 0.075 µM) | >10 | 31 | >10 |
| O=C(Nc1ccc(NC(=S)Nc2ccc(Cl)c(C(F)(F)F)c2)cc1)c1ccccn1 [Example 379] | >10 | >10 | 27 | >10 |
| O=C(CN1CCCCC1)Nc1ccc(NC(=S)Nc2ccc(NC(=O)c3csnn3)cc2)cc1Cl [Example 391] | 0.019 (≈ 0.0358 µM) | 6 (≈ 11.3 µM) | 97 | 8 (≈ 15.1 µM) |
| CN(C)CCSCC(=O)Nc1ccc(NC(=S)Nc2ccc(NC(=O)c3ccco3)cc2)cc1Cl [Example 396] | 0.7 (≈ 1.32 µM) | >10 | 26 | >10 |
| CCOC(=O)Nc1ccc(NC(=S)Nc2ccc(NC(=O)c3ccco3)cc2)cc1Cl [Example 398] | 0.13 (≈ 0.283 µM) | >10 | 5 | >10 |
| O=C(Nc1ccc(NC(=S)Nc2ccc(NC(=O)c3ccco3)cc2)cc1Cl)c1ccccc1 [Example 403] | 0.09 (≈ 0.183 µM) | >15 | 108 | 6 (≈ 12.2 µM) |
| O=C(CN1CCSCC1)Nc1ccc(NC(=S)Nc2ccc(NC(=O)c3ccco3)cc2)cc1Cl [Example 406] | 0.12 (≈ 0.226 µM) | >10 | 28 | >10 |
| CC(=O)Nc1ccc(NC(=S)Nc2ccc(NC(=O)c3ccco3)cc2)cc1Cl [Example 409] | 2 (≈ 4.66 µM) | >10 | 5 | >10 |
| CCCN(CCC)CC(=O)Nc1ccc(NC(=S)Nc2ccc(NC(=O)c3ccco3)cc2)cc1Cl [Example 411] | 0.024 (≈ 0.0454 µM) | 2 (≈ 3.79 µM) | 99 | 8 (≈ 15.1 µM) |

| Structure (SMILES) | IC50 (ug/ml) HCMV [1] [µg/mL] | IC50 (ug/ml) VZV (VZV strain Ellen) [µg/mL] | % inhibition 10 ug/ml VZV (VZV strain Ellen) [%] | IC50 (ug/ml) HSV (HSV-1) [µg/mL] |
| --- | --- | --- | --- | --- |
| CCN(CC)CC(=O)Nc1ccc(NC(=S)Nc2ccc(NC(=O)c3ccco3)cc2)cc1Cl [Example 413] | 0.081 (≈ 0.162 µM) | 5 (≈ 10 µM) | 103 | 5 (≈ 10 µM) |
| O=C(CN1CCCC1)Nc1ccc(NC(=S)Nc2ccc(NC(=O)c3ccco3)cc2)cc1Cl [Example 416] | 0.25 (≈ 0.502 µM) | >15 | 87 | >10 |
| Nc1ccc(NC(=S)Nc2ccc(NC(=O)c3ccco3)cc2)cc1Cl [Example 421] | 0.75 (≈ 1.94 µM) | >10 |  | 8 (≈ 20.7 µM) |
| O=C(CN1CCCCCC1)Nc1ccc(NC(=S)Nc2ccc(NC(=O)c3ccco3)cc2)cc1Cl [Example 422] | 0.058 (≈ 0.11 µM) | >10 | 69 | 5 (≈ 9.5 µM) |
| CC1CCCCN1CC(=O)Nc1ccc(NC(=S)Nc2ccc(NC(=O)c3ccco3)cc2)cc1Cl (stereo not drawn) [Example 424] | 0.09 (≈ 0.171 µM) | 0.7 (≈ 1.33 µM) | 103 | 3 (≈ 5.7 µM) |
| Nc1cccc(NC(=S)Nc2ccc(NC(=O)c3ccco3)cc2)c1 [Example 430] | 0.4 (≈ 1.14 µM) | >10 |  | >10 |
| O=C(Nc1ccc(NC(=S)Nc2cccc(C(F)(F)F)c2)cc1)c1ccco1 [Example 431] | 0.06 (≈ 0.148 µM) | >10 |  | >10 |
| Nc1cc(Cl)cc(NC(=S)Nc2ccc(NC(=O)c3ccco3)cc2)c1 [Example 435] | 0.08 (≈ 0.207 µM) | 0.9 (≈ 2.33 µM) | 94 | 10 (≈ 25.8 µM) |
| Cc1cccc(NC(=S)Nc2ccc(NC(=O)c3ccco3)cc2)c1 [Example 436] | 0.15 (≈ 0.427 µM) | >10 |  | 10 (≈ 28.5 µM) |
| O=C(Nc1ccc(NC(=S)Nc2ccc(NC(=O)c3ccccc3F)cc2)cc1Cl)OCCN1CCCCC1 [Example 438] | 3 (≈ 5.26 µM) | 1.5 (≈ 2.63 µM) | 73 | 5 (≈ 8.77 µM) |
| O=C(Nc1ccc(NC(=S)Nc2ccc(NC(=O)c3ccco3)cc2)cc1Cl)OCCN1CCCCC1 [Example 439] | 0.5 (≈ 0.922 µM) | >10 | 46 | 9 (≈ 16.6 µM) |
| Nc1ccc(Cl)cc1NC(=S)Nc1ccc(NC(=O)c2ccco2)cc1 [Example 440] | 0.3 (≈ 0.775 µM) | 9 (≈ 23.3 µM) |  | 1 (≈ 2.58 µM) |
| N#Cc1cccc(NC(=S)Nc2ccc(NC(=O)c3ccco3)cc2)c1 [Example 441] | 0.17 (≈ 0.469 µM) | >10 |  | >10 |
| O=C(Nc1ccc(NC(=S)Nc2ccc(Cl)nc2)cc1)c1ccco1 [Example 445] | 0.15 (≈ 0.402 µM) | >10 |  | 10 (≈ 26.8 µM) |
| Nc1c(Cl)cccc1NC(=S)Nc1ccc(NC(=O)c2ccco2)cc1 [Example 446] | 0.7 (≈ 1.81 µM) | >10 |  | 10 (≈ 25.8 µM) |
| NNC(=O)c1cccc(NC(=S)Nc2ccc(NC(=O)c3ccco3)cc2)c1 [Example 447] | >10 | >10 |  | >10 |
